Experimental data from PMC11189555, “Aryl amino acetamides prevent Plasmodium falciparum ring development via targeting the lipid-transfer protein PfSTART1” (Nature Communications, 2024).
pEC50: −log10 of the molar value.

Tested on: PopE-F10 M-833 resistant clone (PfSTART1 N330K)
Assay: Growth inhibition assay (72 h, LDH activity)
Type: cell-based, Plasmodium falciparum
Details: for pEC50: Plasmodium falciparum, 72 h; for pEC50 / Fold change compared to 3D7: Supplementary Table 1; for pEC50 / resistance of the line compared with 3D7: PopE-F10 (N330K); for resistance of the line compared with 3D7: Fig 4B; for Fold change compared to 3D7: EC50 on PopE-F10 vs 3D7
Protocol: The drug was then removed, and parasites were allowed to recover. Another cycle of drug treatment (3 μM M-833) was then resumed. The resistant lines were cloned out by limiting dilution (diluting the culture into a 96-well plate to achieve an average of ~0.3 parasites per well), prior to growth inhibition assays and genomic DNA (gDNA) extraction (DNeasy Blood and Tissue kit (Qiagen)[18].
Parasite growth assays with inhibitory compounds were performed as per[11] and are fully described in the Supplementary Information. […]
Growth inhibition assays. Synchronised ring-stage parasites (0.3-0.6% parasitemia, 2% haematocrit) were grown for 72 h in a serial-dilution of the compound under […]
and compound 4. Note that M-833 was first purchased from MolPort (MolPort -002-267-916) then made in-house at WEHI: the differences observed in EC50s across experiments are attributed to the different batches of M -833. For some experiments, 0, 0.25 or 2.5 mM of glucosamine (GlcN) was also added. Experiments were set up in technical duplicates or triplicates. Following a freeze -thaw cycle, lactate dehydrogenase (LDH) activity was assessed as an indicator of parasite growt h 5. 30 μL of parasite culture was incubated for 30 min in the dark with 75 μL Malstat mixture (0.1 M Tris pH 9.0, 20 g/L lactic acid, pH 7.5, 0.2% Triton-X100, 0.5 g/L acetylpyridine adenine dinucleotide (APAD, Sigma), 200 μg/mL nitroblue tetrazolium (NBT; Sigma), 1 μg/mL phenozine ethosulfate (PES; Sigma)). Absorbance was then measured at 650 nm, transformed using the formula below, plotted against the logarithm of the concentrations, and a non-linear regression (log(inhibitor) vs. response, variable slope) was calculated using GraphPad Prism to assess the half-inhibitory […]
Growth inhibition % = (1 − average(sample)− average(uRBC)) ∗ 100 […]
The DMSO samples were also used to assess growth of parasite in the presence of 0.25 and 2.5 mM GlcN (normalised by DMSO in 0 mM GlcN). […]

[1] = PopE-F10, 3.04832 nM, biological replicate 1
[2] = PopE-F10, 3.04832 nM, biological replicate 2
[3] = PopE-F10, 3.04832 nM, biological replicate 3
[4] = PopE-F10, 9.14495 nM, biological replicate 1
[5] = PopE-F10, 9.14495 nM, biological replicate 2
[6] = PopE-F10, 9.14495 nM, biological replicate 3
[7] = PopE-F10, 27.4348 nM, biological replicate 1
[8] = PopE-F10, 27.4348 nM, biological replicate 2
[9] = PopE-F10, 27.4348 nM, biological replicate 3
[10] = PopE-F10, 82.3045 nM, biological replicate 1
[11] = PopE-F10, 82.3045 nM, biological replicate 2
[12] = PopE-F10, 82.3045 nM, biological replicate 3
[13] = PopE-F10, 246.914 nM, biological replicate 1
[14] = PopE-F10, 246.914 nM, biological replicate 2
[15] = PopE-F10, 246.914 nM, biological replicate 3
[16] = PopE-F10, 740.741 nM, biological replicate 1
[17] = PopE-F10, 740.741 nM, biological replicate 2
[18] = PopE-F10, 740.741 nM, biological replicate 3
[19] = PopE-F10, 2222.22 nM, biological replicate 1
[20] = PopE-F10, 2222.22 nM, biological replicate 2
[21] = PopE-F10, 2222.22 nM, biological replicate 3
[22] = PopE-F10, 6666.67 nM, biological replicate 1
[23] = PopE-F10, 6666.67 nM, biological replicate 2
[24] = PopE-F10, 6666.67 nM, biological replicate 3
[25] = PopE-F10, 20000 nM, biological replicate 1
[26] = PopE-F10, 20000 nM, biological replicate 2
[27] = PopE-F10, 20000 nM, biological replicate 3

Question: Which results are given for `CC(C)(Oc1ccc(Cl)c(S(=O)(=O)N2CCOCC2)c1)C(=O)Nc1ccc(F)c(Cl)c1` [compound 3]?
Answer: pEC50: 5.49; resistance of the line compared with 3D7: highly resistant; (av-uRBC) / (DMSO-uRBC) x100 [1]: 115.115; (av-uRBC) / (DMSO-uRBC) x100 [2]: 108.442; (av-uRBC) / (DMSO-uRBC) x100 [3]: 119.048; (av-uRBC) / (DMSO-uRBC) x100 [4]: 115.06; (av-uRBC) / (DMSO-uRBC) x100 [5]: 109.174; (av-uRBC) / (DMSO-uRBC) x100 [6]: 119.013; (av-uRBC) / (DMSO-uRBC) x100 [7]: 115.16; (av-uRBC) / (DMSO-uRBC) x100 [8]: 107.726; (av-uRBC) / (DMSO-uRBC) x100 [9]: 110.78; (av-uRBC) / (DMSO-uRBC) x100 [10]: 115.437; (av-uRBC) / (DMSO-uRBC) x100 [11]: 107.232; (av-uRBC) / (DMSO-uRBC) x100 [12]: 123.007; (av-uRBC) / (DMSO-uRBC) x100 [13]: 112.345; (av-uRBC) / (DMSO-uRBC) x100 [14]: 106.543; (av-uRBC) / (DMSO-uRBC) x100 [15]: 116.449; (av-uRBC) / (DMSO-uRBC) x100 [16]: 107.602; (av-uRBC) / (DMSO-uRBC) x100 [17]: 102.914; (av-uRBC) / (DMSO-uRBC) x100 [18]: 98.1859; (av-uRBC) / (DMSO-uRBC) x100 [19]: 85.8267; (av-uRBC) / (DMSO-uRBC) x100 [20]: 84.9625; (av-uRBC) / (DMSO-uRBC) x100 [21]: 59.2883; (av-uRBC) / (DMSO-uRBC) x100 [22]: 37.9433; (av-uRBC) / (DMSO-uRBC) x100 [23]: 28.6269; (av-uRBC) / (DMSO-uRBC) x100 [24]: 13.3438; (av-uRBC) / (DMSO-uRBC) x100 [25]: 11.6135; (av-uRBC) / (DMSO-uRBC) x100 [26]: 7.135; (av-uRBC) / (DMSO-uRBC) x100 [27]: 4.744; Fold change compared to 3D7: 203 fold

Question: `O=C(CNc1ccc(Cl)c(S(=O)(=O)N2CCOCC2)c1)Nc1ccc(F)c(Cl)c1` [compound 2, reference compound] was tested. Which pEC50 did it give?
Answer: Its pEC50 is under 4.70.

Question: And the “resistance of the line compared with 3D7” value?
Answer: The value was “highly resistant”.

Question: And the “(av-uRBC) / (DMSO-uRBC) x100” value [1]?
Answer: The value was 114.401.

Question: And the “(av-uRBC) / (DMSO-uRBC) x100” value [2]?
Answer: The value was 112.198.

Question: What about the “(av-uRBC) / (DMSO-uRBC) x100” value [3] of the same compound?
Answer: The value was 118.159.

Question: And the “(av-uRBC) / (DMSO-uRBC) x100” value [4]?
Answer: The value was 113.83.

Question: What about the “(av-uRBC) / (DMSO-uRBC) x100” value [5] of the same compound?
Answer: The value was 112.634.

Question: What about the “(av-uRBC) / (DMSO-uRBC) x100” value [6] of the same compound?
Answer: Its value is 115.839.

Question: And the “(av-uRBC) / (DMSO-uRBC) x100” value [7]?
Answer: Its value is 109.84.

Question: What about the “(av-uRBC) / (DMSO-uRBC) x100” value [8] of the same compound?
Answer: The value was 113.332.

Question: And the “(av-uRBC) / (DMSO-uRBC) x100” value [9]?
Answer: Its value is 126.539.

Question: And the “(av-uRBC) / (DMSO-uRBC) x100” value [10]?
Answer: The value was 112.064.

Question: What about the “(av-uRBC) / (DMSO-uRBC) x100” value [11] of the same compound?
Answer: Its value is 115.064.

Question: And the “(av-uRBC) / (DMSO-uRBC) x100” value [12]?
Answer: The value was 112.119.

Question: What about the “(av-uRBC) / (DMSO-uRBC) x100” value [13] of the same compound?
Answer: Its value is 108.998.

Question: And the “(av-uRBC) / (DMSO-uRBC) x100” value [14]?
Answer: Its value is 111.627.

Question: What about the “(av-uRBC) / (DMSO-uRBC) x100” value [15] of the same compound?
Answer: The value was 122.435.

Question: And the “(av-uRBC) / (DMSO-uRBC) x100” value [16]?
Answer: The value was 107.242.

Question: And the “(av-uRBC) / (DMSO-uRBC) x100” value [17]?
Answer: Its value is 111.201.

Question: What about the “(av-uRBC) / (DMSO-uRBC) x100” value [18] of the same compound?
Answer: Its value is 127.133.

Question: What about the “(av-uRBC) / (DMSO-uRBC) x100” value [19] of the same compound?
Answer: The value was 102.224.

Question: What about the “(av-uRBC) / (DMSO-uRBC) x100” value [20] of the same compound?
Answer: Its value is 112.371.

Question: And the “(av-uRBC) / (DMSO-uRBC) x100” value [21]?
Answer: Its value is 122.627.

Question: What about the “(av-uRBC) / (DMSO-uRBC) x100” value [22] of the same compound?
Answer: The value was 102.39.

Question: And the “(av-uRBC) / (DMSO-uRBC) x100” value [23]?
Answer: The value was 105.46.

Question: And the “(av-uRBC) / (DMSO-uRBC) x100” value [24]?
Answer: The value was 111.965.

Question: What about the “(av-uRBC) / (DMSO-uRBC) x100” value [25] of the same compound?
Answer: The value was 70.532.

Question: And the “(av-uRBC) / (DMSO-uRBC) x100” value [26]?
Answer: The value was 73.7076.

Question: And the “(av-uRBC) / (DMSO-uRBC) x100” value [27]?
Answer: Its value is 50.604.

Question: And the “Fold change compared to 3D7” value?
Answer: Its value is over 117 fold.
